Assay results taken from US20100129436A1, “SUBTANCES FOR THE PROTECTION OF CELLS AND/OR TISSUES” (priority 2007, published 2010).

What follows are compounds tested on endothelial cells, e.g. cells of the endothelium of the human umbilical cord vein (assay: Protection of cultured endothelial cells against cold-induced damage (lactate dehydrogenase release)). Conditions: Homo sapiens, Endothelial cell; cells pre-incubated with test substance, medium replaced, then incubated e.g. 24 hours at 0° C; LDH in supernatant; read-out: EC50 (concentration at which 50% of the release of lactate dehydrogenase is inhibited).
Format: cell-based
Method: The active substances are synthesised as described below. The action of the substances on cold-induced damage to cells is quantified in a model system. For this purpose, endothelial cells, e.g. cells of the endothelium of the human umbilical cord vein, are cultured. The cells are incubated with various concentrations of the test substances for variable periods of time and then the medium is replaced by fresh medium without any test substance. Next, the cells are incubated e.g. for 24 hours at 0° C. At the end of the incubation period, the lactate dehydrogenase released is determined in the supernatant of the culture vessels by known methods, this concentration being a measure of cell damage. The effectiveness of the individual compounds is determined by the concentration at which 50% of the release of lactate dehydrogenase is inhibited (EC50).

CNCC(O)c1ccc(O)c(O)c1 (stereo not shown) [Adrenalin, reference compound] and NC[C@H](O)c1ccc(O)c(O)c1 [Noradrenalin, reference compound] are within 1.5-fold of each other in EC50: 600 µM for the first, 700 µM for the second.

Compared with CC(CCc1ccc(O)cc1)NCCc1ccc(O)c(O)c1 (stereo not shown) [Dobutamine, reference compound], O=C(CCc1ccccc1)NCCc1ccc(O)c(O)c1 [N-(3-Phenylpropanoyl) dopamine] is 1.8-fold higher in EC50: 5 µM for the first, 9 ± 1 µM for the second.

Compared with NCCc1ccc(O)c(O)c1 [Dopamine, reference compound], CCCCCCCC(=O)NCCc1ccc(O)c(O)c1 [N-Octanoyl dopamine] is 36-fold lower in EC50: 75 µM for the first, 2.1 ± 0.2 µM for the second.

Going from Cc1ccc(S(=O)(=O)NCCc2ccc(O)c(O)c2)cc1 [N-(4-Methylphenylsulfonyl) dopamine] to CCCCCCCCCC(=O)NCCc1ccc(O)c(O)c1 [N-Decanoyl dopamine], the EC50 falls from 12 ± 1 µM to 0.9 ± 0.2 µM (13-fold). The second is the more potent here.

CCCCCCCCCCCC(=O)NCCc1ccc(O)c(O)c1 [N-Dodecanoyl dopamine] and CCCCCCCCCCCCCC(=O)NCCc1ccc(O)c(O)c1 [N-Tetradecanoyl dopamine] are within error of each other in EC50: 1.2 ± 0.2 µM for the first, 1.3 ± 0.2 µM for the second.

Same assay, conditions: cells pre-incubated with test substance, medium replaced, then incubated e.g. 24 hours at 0° C; LDH in supernatant; read-out: EC50 (concentration at which 50% of the release of lactate dehydrogenase is inhibited)

Compared with CCCCCCCCNC(=O)c1cccc(O)c1O [2,3-Dihydroxybenzoyl amidooctane], CCCCCCCCNC(=O)c1cc(O)ccc1O [2,5-Dihydroxybenzoyl amidooctane] is 5-fold higher in EC50: 1.2 ± 0.1 µM for the first, 6 ± 1 µM for the second.

Work on CCCCCCCCNC(=O)c1ccc(O)c(O)c1 [3,4-Dihydroxybenzoyl amidooctane] yielded an EC50 of 2.4 ± 0.2 µM.
